Data: PubChem BioAssay AID248 (DTP/NCI, 2004)
Toxic doses and inconclusive results are not listed. Rule as the data show it: active = T/C of 150% or more; inactive = T/C below 125%.

Test system: L1210 leukemia ip in BDF1 mice, survival T/C
Assay: NCI In Vivo Anticancer Drug Screen. Data for tumor model L1210 Leukemia (intraperitoneal) in B6D2F1 (BDF1) mice
Details: higher = longer survival
How it was run: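 Tumor was transplanted into mice, which were then dosed with test compound or vehicle alone. Survival was recorded for each group, and the treated figure was expressed relative to the control figure.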

[1] = endpoint: mean survival time, dose: 100.0 mg/kg/injection, schedule: Q01DX009 (ip), vehicle: saline
[2] = endpoint: mean survival time, dose: 100.0 mg/kg/injection, schedule: Q04DX003 (ip), vehicle: saline
[3] = endpoint: mean survival time, dose: 200.0 mg/kg/injection, schedule: Q01DX009 (ip), vehicle: saline
[4] = endpoint: mean survival time, dose: 200.0 mg/kg/injection, schedule: Q04DX003 (ip), vehicle: saline
[5] = endpoint: mean survival time, dose: 400.0 mg/kg/injection, schedule: Q04DX003 (ip), vehicle: saline
[6] = endpoint: mean survival time, dose: 100.0 mg/kg/injection, schedule: Q01DX001 (ip), vehicle: carboxymethylcellulose (CMC)
[7] = endpoint: mean survival time, dose: 100.0 mg/kg/injection, schedule: Q01DX009 (ip), vehicle: Klucel (hydroxypropylcellulose) (HPC)
[8] = endpoint: mean survival time, dose: 200.0 mg/kg/injection, schedule: Q01DX009 (ip), vehicle: Klucel (hydroxypropylcellulose) (HPC)
[9] = endpoint: mean survival time, dose: 400.0 mg/kg/injection, schedule: Q01DX009 (ip), vehicle: Klucel (hydroxypropylcellulose) (HPC)
[10] = endpoint: mean survival time, dose: 50.0 mg/kg/injection, schedule: Q01DX001 (ip), vehicle: saline
[11] = endpoint: mean survival time, dose: 100.0 mg/kg/injection, schedule: Q04DX003 (ip), vehicle: Klucel (hydroxypropylcellulose) (HPC)
[12] = endpoint: mean survival time, dose: 200.0 mg/kg/injection, schedule: Q04DX003 (ip), vehicle: Klucel (hydroxypropylcellulose) (HPC)
[13] = endpoint: mean survival time, dose: 400.0 mg/kg/injection, schedule: Q04DX003 (ip), vehicle: Klucel (hydroxypropylcellulose) (HPC)
[14] = endpoint: mean survival time, dose: 100.0 mg/kg/injection, schedule: Q01DX001 (ip), vehicle: Klucel (hydroxypropylcellulose) (HPC)
[15] = endpoint: mean survival time, dose: 200.0 mg/kg/injection, schedule: Q01DX001 (ip), vehicle: Klucel (hydroxypropylcellulose) (HPC)
[16] = endpoint: mean survival time, dose: 400.0 mg/kg/injection, schedule: Q01DX001 (ip), vehicle: Klucel (hydroxypropylcellulose) (HPC)
[17] = endpoint: mean survival time, dose: 100.0 mg/kg/injection, schedule: Q01DX001 (ip), vehicle: saline
[18] = endpoint: mean survival time, dose: 100.0 mg/kg/injection, schedule: Q01DX009 (ip), vehicle: saline with Tween-80

Measured: T/C

N=Cc1c(O)[nH]c(=O)[nH]c1=O
inactive: [1] 95 % of control | [2] 97 % of control | [3] 90 % of control | [4] 93 % of control | endpoint: mean survival time, dose: 400.0 mg/kg/injection, schedule: Q01DX009 (ip), vehicle: saline 91 % of control | [5] 95 % of control

COC(=O)c1ccccc1N=NN(C)C
inactive: [6] 102 % of control | endpoint: mean survival time, dose: 200.0 mg/kg/injection, schedule: Q01DX001 (ip), vehicle: carboxymethylcellulose (CMC) 102 % of control | endpoint: median survival time, dose: 65.0 mg/kg/injection, schedule: Q01DX001 (ip), vehicle: steriod suspending solution 110 % of control | endpoint: median survival time, dose: 108.0 mg/kg/injection, schedule: Q01DX001 (ip), vehicle: steriod suspending solution 105 % of control | endpoint: median survival time, dose: 180.0 mg/kg/injection, schedule: Q01DX001 (ip), vehicle: steriod suspending solution 120 % of control | endpoint: median survival time, dose: 300.0 mg/kg/injection, schedule: Q01DX001 (ip), vehicle: steriod suspending solution 105 % of control

O=C(N/N=C/c1c[nH]c2ccccc12)C1CCCO1 (stereo not drawn)
inactive: [7] 98 % of control | [8] 98 % of control | [9] 94 % of control

CC12CCC3CC1OC(=O)C32 (stereo not drawn)
inactive: endpoint: mean survival time, dose: 12.5 mg/kg/injection, schedule: Q01DX001 (ip), vehicle: saline 98 % of control | endpoint: mean survival time, dose: 25.0 mg/kg/injection, schedule: Q01DX001 (ip), vehicle: saline 94 % of control | [10] 105 % of control

Cc1nc2c(Cl)cc(Cl)cc2c2c1-c1ccccc1C2=O
inactive: endpoint: mean survival time, dose: 100.0 mg/kg/injection, schedule: Q04DX003 (ip), vehicle: acetone 89 % of control | endpoint: mean survival time, dose: 200.0 mg/kg/injection, schedule: Q04DX003 (ip), vehicle: acetone 89 % of control | endpoint: mean survival time, dose: 400.0 mg/kg/injection, schedule: Q04DX003 (ip), vehicle: acetone 97 % of control

O=C(O)CCC(=O)c1cc2ccccc2s1
inactive: [11] 92 % of control | [12] 99 % of control | [13] 99 % of control

C/C(=N\N)C(=O)S(=O)(=O)c1c(C)cc(C)cc1C
inactive: [14] 97 % of control | [15] 97 % of control | [16] 101 % of control

C[C@]12CC[C@H](O)C[C@@]1(O)CC[C@@H]1[C@@H]2CC[C@]2(C)[C@@H](c3ccc(=O)oc3)CC[C@]12O
inactive: endpoint: mean survival time, dose: 1.25 mg/kg/injection, schedule: Q01DX009 (ip), vehicle: Klucel (hydroxypropylcellulose) (HPC) 107 % of control | endpoint: mean survival time, dose: 2.5 mg/kg/injection, schedule: Q01DX009 (ip), vehicle: Klucel (hydroxypropylcellulose) (HPC) 91 % of control | endpoint: mean survival time, dose: 5.0 mg/kg/injection, schedule: Q01DX009 (ip), vehicle: Klucel (hydroxypropylcellulose) (HPC) 96 % of control | endpoint: mean survival time, dose: 10.0 mg/kg/injection, schedule: Q01DX009 (ip), vehicle: Klucel (hydroxypropylcellulose) (HPC) 102 % of control | endpoint: mean survival time, dose: 20.0 mg/kg/injection, schedule: Q01DX009 (ip), vehicle: Klucel (hydroxypropylcellulose) (HPC) 98 % of control | endpoint: mean survival time, dose: 25.0 mg/kg/injection, schedule: Q01DX009 (ip), vehicle: carboxymethylcellulose (CMC) 106 % of control | endpoint: mean survival time, dose: 50.0 mg/kg/injection, schedule: Q01DX001 (ip), vehicle: carboxymethylcellulose (CMC) 104 % of control | endpoint: mean survival time, dose: 50.0 mg/kg/injection, schedule: Q01DX009 (ip), vehicle: carboxymethylcellulose (CMC) 92 % of control | [6] 109 % of control

CCCCn1c(=O)cc(C)c2ccccc21
inactive: endpoint: mean survival time, dose: 100.0 mg/kg/injection, schedule: Q01DX001 (ip), vehicle: other 95 % of control | endpoint: mean survival time, dose: 200.0 mg/kg/injection, schedule: Q01DX001 (ip), vehicle: other 92 % of control | endpoint: mean survival time, dose: 400.0 mg/kg/injection, schedule: Q01DX001 (ip), vehicle: other 94 % of control

COc1ccccc1NC(=O)Nc1c(C)cc(C)cc1C
inactive: [11] 95 % of control | [8] 90 % of control | [12] 88 % of control | [9] 95 % of control | [13] 91 % of control

CNC1(c2ccccc2)CC2CCC(C2)C1=O (stereo not drawn)
inactive: endpoint: mean survival time, dose: 25.0 mg/kg/injection, schedule: Q04DX003 (ip), vehicle: saline 100 % of control | endpoint: mean survival time, dose: 50.0 mg/kg/injection, schedule: Q04DX003 (ip), vehicle: saline 86 % of control | [17] 102 % of control

COP(=O)(NC12CC3CC(CC(C3)C1)C2)OC
inactive: [7] 103 % of control | [11] 97 % of control | [8] 100 % of control | [12] 95 % of control | [9] 101 % of control | [13] 95 % of control

O=C(Nc1cc([N+](=O)[O-])ccc1F)Oc1ccccc1F
inactive: [11] 102 % of control | [12] 94 % of control | [13] 98 % of control

Cc1ccc(NN)c(I)c1
inactive: endpoint: mean survival time, dose: 100.0 mg/kg/injection, schedule: Q01DX001 (ip), vehicle: saline with Tween-80 97 % of control | endpoint: mean survival time, dose: 200.0 mg/kg/injection, schedule: Q01DX001 (ip), vehicle: saline with Tween-80 93 % of control | endpoint: mean survival time, dose: 400.0 mg/kg/injection, schedule: Q01DX001 (ip), vehicle: saline with Tween-80 95 % of control

C=CCCc1c(N)nc(N)[nH]c1=O
inactive: endpoint: mean survival time, dose: 25.0 mg/kg/injection, schedule: Q01DX001 (ip), vehicle: Klucel (hydroxypropylcellulose) (HPC) 100 % of control | endpoint: mean survival time, dose: 50.0 mg/kg/injection, schedule: Q01DX001 (ip), vehicle: Klucel (hydroxypropylcellulose) (HPC) 100 % of control | [14] 96 % of control

CN(CCO)C(=O)/C=C/c1ccc(O)cc1
inactive: endpoint: mean survival time, dose: 50.0 mg/kg/injection, schedule: Q01DX009 (ip), vehicle: saline 95 % of control | [1] 95 % of control | [3] 101 % of control

CCCCOc1ccccc1NC(=O)CCl
inactive: [2] 100 % of control | [4] 100 % of control | [5] 93 % of control

O=c1nc2ccc3[nH]c(O)c4ccc1c2c34
inactive: [10] 104 % of control | [17] 104 % of control | endpoint: mean survival time, dose: 200.0 mg/kg/injection, schedule: Q01DX001 (ip), vehicle: saline 104 % of control | endpoint: mean survival time, dose: 400.0 mg/kg/injection, schedule: Q01DX001 (ip), vehicle: saline 98 % of control

Fc1cccc2ccccc12
inactive: [18] 105 % of control | endpoint: mean survival time, dose: 200.0 mg/kg/injection, schedule: Q01DX009 (ip), vehicle: saline with Tween-80 87 % of control

O=C(O)c1ccccc1C(=O)c1ccc2cccc(F)c2c1
inactive: [14] 105 % of control | [15] 120 % of control | [16] 100 % of control

CCCCCC/C=C/C=C/C(C)C
inactive: endpoint: mean survival time, dose: 75.0 mg/kg/injection, schedule: Q01DX001 (ip), vehicle: saline 95 % of control | endpoint: mean survival time, dose: 75.0 mg/kg/injection, schedule: Q04DX003 (ip), vehicle: saline 104 % of control | endpoint: mean survival time, dose: 150.0 mg/kg/injection, schedule: Q01DX001 (ip), vehicle: saline 101 % of control | endpoint: mean survival time, dose: 150.0 mg/kg/injection, schedule: Q04DX003 (ip), vehicle: saline 102 % of control | endpoint: mean survival time, dose: 300.0 mg/kg/injection, schedule: Q01DX001 (ip), vehicle: saline 105 % of control | endpoint: mean survival time, dose: 300.0 mg/kg/injection, schedule: Q04DX003 (ip), vehicle: saline 100 % of control

BrC1(Br)C2CC3C(CC21)C3(Br)Br (stereo not drawn)
inactive: endpoint: mean survival time, dose: 100.0 mg/kg/injection, schedule: Q01DX001 (ip), vehicle: saline sonified 98 % of control | endpoint: mean survival time, dose: 200.0 mg/kg/injection, schedule: Q01DX001 (ip), vehicle: saline sonified 96 % of control | endpoint: mean survival time, dose: 400.0 mg/kg/injection, schedule: Q01DX001 (ip), vehicle: saline sonified 98 % of control

CCCCNCCC(SS)c1ccc(Cl)cc1 (stereo not drawn)
inactive: endpoint: mean survival time, dose: 50.0 mg/kg/injection, schedule: Q01DX009 (ip), vehicle: saline with Tween-80 106 % of control | [18] 92 % of control | endpoint: mean survival time, dose: 100.0 mg/kg/injection, schedule: Q04DX003 (ip), vehicle: saline with Tween-80 88 % of control | endpoint: mean survival time, dose: 200.0 mg/kg/injection, schedule: Q04DX003 (ip), vehicle: saline with Tween-80 93 % of control

CS(=O)(=O)OC1C2CCC(C2=C(c2ccccc2)c2ccccc2)C1OS(C)(=O)=O (stereo not drawn)
inactive: endpoint: mean survival time, dose: 75.0 mg/kg/injection, schedule: Q01DX001 (ip), vehicle: carboxymethylcellulose (CMC) 93 % of control | endpoint: mean survival time, dose: 150.0 mg/kg/injection, schedule: Q01DX001 (ip), vehicle: carboxymethylcellulose (CMC) 101 % of control | endpoint: mean survival time, dose: 300.0 mg/kg/injection, schedule: Q01DX001 (ip), vehicle: carboxymethylcellulose (CMC) 91 % of control
